The source of these data is article PMC6435570, “Zafirlukast Is a Dual Modulator of Human Soluble Epoxide Hydrolase and Peroxisome Proliferator-Activated Receptor γ” (Frontiers in Pharmacology, 2019).

For test [1], the system named is 3T3-L1 cells. Briefly: 3T3-L1 adipocyte differentiation, Oil Red O lipid accumulation. Type of test: cell-based, murine. The following applies: differentiation cocktail plus zafirlukast or montelukast 1, 5, 10 μM or rosiglitazone 2 μM; 14 days. Here is the method: (§1) 3T3-L1 cells were differentiated into adipocytes for 14 days according to the protocol of [Zebisch et al. (2012)]. For this, cells were seeded in 6-well plates ([…]) and differentiation was induced after 48 h by addition of a differentiation cocktail containing 1 μg/mL insulin, 0.25 μM dexamethasone and 0.5 mM isobutylmethylxanthine (IBMX) in DMEM supplemented with 10% FCS and 1% PS. […] After 2 days, medium was replaced by DMEM supplemented with 10% FCS, 1% PS and 1 μg/mL insulin for 2 more days. Afterwards, cells were kept for lipid droplet accumulation in DMEM containing 10% FCS and 1% PS until day 15. Media were replaced every other day.
Differentiated 3T3-L1 cells were washed with PBS and subsequently fixed for 60 min with formaldehyde (4% in PBS). Afterwards, cells were thoroughly rinsed with 60% isopropanol and incubated with Oil Red O solution (0.3% in 60% isopropanol) for 120 min. This was followed by the removal of the staining solution and thorough rinsing of the cell layer with ultrapure water. Finally, the plates were dried and pictures of the stained cell layers were taken.
For quantification of the accumulated dye, 3T3-L1 cells were seeded in 24-well plates (0.55 × 10^5/well) instead of 6-wells and the differentiation was carried out as described in the section ‘Adipocyte differentiation’. After 14 days of differentiation, cells were fixed and stained as described above. […] 100 μl of dye extract were transferred to a 96-well plate and absorbance was measured (λabs = 510 nm) by an Infinite F200 plate reader (Tecan Group Ltd., Männedorf, Switzerland). […]
As master regulator of adipocyte differentiation in men and mice, PPARγ plays a crucial role in the cell’s commitment to the adipocyte lineage by controlling important functions such as intracellular biosynthesis, transport and accumulation of lipids. […] Upon differentiation, different parameters such as lipid accumulation and PPARγ target gene expression can be assessed to investigate the PPARγ activating potential of the compounds of interest. […]

Test [2] has as its system PPARγ, FABP-4 and CD36 protein in 3T3-L1 adipocytes. Briefly: Protein expression in differentiated 3T3-L1 adipocytes (Western Blot). Type of test: cell-based, murine. The following applies: rosiglitazone 2 μM. How it is done:
as §1
(§2) Total 3T3-L1 or HEP-G2 cell lysates were prepared in lysis buffer (20 mM Tris-HCl, pH 7.4, 150 mM NaCl, 2 mM EDTA, 1% Triton X-100, 0.5% NP-40) supplemented with protease and phosphatase inhibitors (PhosSTOP^TM + cOmplete^TM Mini, Roche Diagnostics GmbH, Mannheim, Germany). Protein concentrations were quantified using the Pierce^TM BCA Protein Assay Kit (Thermo Scientific, Waltham, MA, United States). Total protein (30 μg/lane) was separated by SDS-polyacrylamide gel electrophoresis and transferred to nitrocellulose membranes (GE Healthcare Life Sciences, Little Chalfont, United Kingdom). Membranes were blocked with Odyssey blocking reagent (LI-COR Biosciences, Bad Homburg, Germany) for 1 h at room temperature. Ensuing, membranes were incubated with antibodies against CD36 (EPR6573, Abcam, Cambridge, United Kingdom), PPARγ (E-8, Santa Cruz Biotechnology, Heidelberg, Germany), FABP-4 (C-15, Santa Cruz Biotechnology, Heidelberg, Germany) or PPARγ Ser273 (Bioss Antibodies Inc., Woburn, MA, United States) overnight at 4°C. Afterwards, membranes were washed and incubated with fluorescence conjugated secondary antibodies (IRDye, LI-COR Biosciences, Bad Homburg, Germany). Protein antibody complexes were visualized on the Odyssey Infrared Imaging System (LI-COR Biosciences, Bad Homburg, Germany). β-actin (I-19, goat, polyclonal, Santa Cruz Biotechnology, Heidelberg, Germany) was used as loading control. The density of the immune reactive bands was analyzed using the Image Studio 5.2 software (LI-COR Biosciences, Bad Homburg, Germany).
As master regulator of adipocyte differentiation in men and mice, PPARγ plays a crucial role in the cell’s commitment to the adipocyte lineage by controlling important functions such as intracellular biosynthesis, transport and accumulation of lipids. Murine 3T3-L1 fibroblasts are a well characterized in vitro tool to study PPARγ induced adipocyte differentiation. These cells can be differentiated from fibroblasts into adipocytes by an activation cocktail (0.5 mM IBMX, 1 μg/mL insulin, 0.25 μM dexamethasone) together with the potential PPARγ agonist. Upon differentiation, different parameters such as lipid accumulation and PPARγ target gene expression can be assessed to investigate the PPARγ activating potential of the compounds of interest. […] Rosiglitazone (2 μM) was used as positive control. This was followed by insulin (1 μg/mL) treatment for another 48 h. After this, cells were kept in growth medium for a week to complete the differentiation process and allow intracellular lipid accumulation. Subsequently, the cells were stained with Oil Red O solution to investigate the extent of cytoplasmic lipid droplet accumulation as a measure for cell differentiation.
In addition to mRNA expression, the protein expression levels of the two PPARγ target genes FABP-4 and CD36 in differentiated 3T3-L1 cells after 14 days were investigated. For this, total protein lysates were separated by gel electrophoresis followed by Western Blotting (Figure 3E,F and Supplementary Figures S2A,B).

The test system of test [3] is PPARγ2 phosphorylation at serine 273. Briefly: TNFα triggered PPARγ Ser273 phosphorylation in 3T3-L1 adipocytes (Western Blot). Type of test: cell-based, murine. The following applies: zafirlukast 1 or 10 μM or rosiglitazone 2 μM for 45 min, then TNFα 50 ng/mL 30 min. Here is the method:
as §2, with “Ensuing, membranes were incubated with antibodies against CD36 (EPR6573, Abcam, Cambridge, United Kingdom), PPARγ (E-8, Santa Cruz Biotechnology, Heidelberg, Germany), FABP-4 (C-15, Santa Cruz Biotechnology, Heidelberg, Germany) or PPARγ Ser273 (Bioss Antibodies Inc., Woburn, MA, United States) overnight at 4°C.” left out, “Protein antibody complexes were visualized on the Odyssey Infrared Imaging System (LI-COR Biosciences, Bad Homburg, Germany). β-actin (I-19, goat, polyclonal, Santa Cruz Biotechnology, Heidelberg, Germany) was used as loading control.” left out
We induced this post-translational modification by short-term treatment of the differentiated cells with the cytokine TNFα, generating a pro-inflammatory milieu. […] For this, we used an assay system in which the recruitment of the fluorescence-tagged PPARγ coactivator CBP to the PPARγ-LBD was assessed by time-resolved FRET technique in presence and absence of rosiglitazone.
For orientation: A western blot detects proteins with antibodies after separation by electrophoresis.

Test [4] has as its target T1, human PPARα ligand binding domain (Homo sapiens, UniProt Q07869).
T1 construct: expressed in transfected cells; host or cells: HEK-293T
T1 sequence (Q07869 239-466 limits assumed): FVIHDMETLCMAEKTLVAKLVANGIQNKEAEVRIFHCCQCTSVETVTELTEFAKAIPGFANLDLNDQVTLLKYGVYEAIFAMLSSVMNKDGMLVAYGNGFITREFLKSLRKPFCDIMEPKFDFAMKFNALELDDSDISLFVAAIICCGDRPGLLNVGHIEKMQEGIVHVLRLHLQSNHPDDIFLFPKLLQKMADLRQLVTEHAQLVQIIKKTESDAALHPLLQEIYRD
Briefly: PPAR reporter gene assay (Gal4 hybrid, PPARα). Type of test: cell-based. The following applies: HEK-293T, reference GW7647 1 μM, tested up to 10 μM. A general note: Reporter assays use an easily measured gene product as a stand-in for the process of interest.
Procedure: (§3) HEK-293T cells were seeded in 96-well plates (2.5 × 10^4 cells/well) and were allowed to adhere overnight. Before transfection, medium was changed to Opti-MEM without supplements. Transient plasmid transfection was carried out using Lipofectamine LTX reagent (Invitrogen, Carlsbad, CA, United States) according to the manufacturer’s protocol with pFR-Luc (Stratagene, La Jolla, CA, United States), pRL-SV40 (Promega, Fitchburg, MA, United States) and pFA-CMV-PPAR-LBD ([Rau et al., 2006]). 5 h after transfection, medium was changed to Opti-MEM supplemented with penicillin (100 U/mL) and streptomycin (100 μg/mL), now additionally containing 0.1% DMSO and the respective test compound or 0.1% DMSO alone as untreated control. Each concentration was tested in triplicates and each experiment was repeated independently at least four times. Following overnight (12–16 h) incubation with the test compounds, cells were assayed for luciferase activity using the Dual-Glo^TM Luciferase Assay System (Promega, Fitchburg, MA, United States) according to the manufacturer’s protocol. Luminescence was measured with an Infinite M200 luminometer (Tecan Group Ltd., Männedorf, Switzerland). Normalization of transfection efficiency and cell growth was done by division of firefly luciferase data by renilla luciferase data and multiplying the value by 1000 resulting in relative light units (RLU). Fold activation was obtained by dividing the mean RLU of a test compound at a respective concentration by the mean RLU of untreated control. Relative activation was obtained by dividing the fold activation of a test compound at a respective concentration by the fold activation of the respective PPARα, γ or δ full agonist GW-7647, pioglitazone or L165,041 at 1 μM. EC50 and standard deviation were calculated with the mean relative activation values of at least four independent experiments by SigmaPlot 10.0 (Systat Software GmbH, Erkrath, Germany) using a four parameter logistic regression. […]

For test [5], the target named is T2, human PPARδ ligand binding domain (Homo sapiens, UniProt Q03181).
T2 construct: expressed in transfected cells; host or cells: HEK-293T
T2 sequence (Q03181 211-439 limits assumed): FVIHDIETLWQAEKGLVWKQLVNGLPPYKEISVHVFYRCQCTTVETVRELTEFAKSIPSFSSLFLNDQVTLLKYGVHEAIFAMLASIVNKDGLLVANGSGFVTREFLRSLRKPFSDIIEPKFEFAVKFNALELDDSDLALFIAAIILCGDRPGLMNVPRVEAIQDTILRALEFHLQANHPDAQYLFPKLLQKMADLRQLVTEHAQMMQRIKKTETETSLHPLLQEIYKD
Briefly: PPAR reporter gene assay (Gal4 hybrid, PPARδ). Type of test: cell-based. The following applies: HEK-293T, reference L165,041 1 μM, tested up to 10 μM.
Procedure: as §3

Test [6] has as its target T3, recombinant human sEH (Homo sapiens, UniProt P34913).
T3 sequence (P34913 1-555): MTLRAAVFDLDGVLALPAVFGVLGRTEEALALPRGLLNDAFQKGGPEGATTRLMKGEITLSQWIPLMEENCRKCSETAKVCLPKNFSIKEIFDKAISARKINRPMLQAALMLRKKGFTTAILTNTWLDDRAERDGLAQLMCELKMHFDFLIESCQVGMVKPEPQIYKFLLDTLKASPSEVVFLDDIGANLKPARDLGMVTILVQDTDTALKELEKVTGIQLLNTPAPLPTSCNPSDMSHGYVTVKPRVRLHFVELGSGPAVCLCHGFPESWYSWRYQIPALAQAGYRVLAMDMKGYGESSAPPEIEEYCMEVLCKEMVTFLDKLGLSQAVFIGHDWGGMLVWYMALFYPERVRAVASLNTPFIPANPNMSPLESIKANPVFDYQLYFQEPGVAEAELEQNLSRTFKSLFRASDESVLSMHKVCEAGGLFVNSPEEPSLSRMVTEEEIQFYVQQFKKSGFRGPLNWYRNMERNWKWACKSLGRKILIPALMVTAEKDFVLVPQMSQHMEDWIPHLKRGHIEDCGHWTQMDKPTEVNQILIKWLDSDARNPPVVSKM
Briefly: Recombinant sEH activity (PHOME fluorescence assay). Type of test: biochemical. The following applies: PHOME 50 μM, 30 min preincubation at RT, read-out: sEH rec. IC50.
Procedure: For determination of IC50 values of recombinant human sEH a 96-well fluorescence-based assay system was used as described before ([Blöcher et al., 2016a]). In brief, non-fluorescent PHOME (3 phenylcyano-(6-methoxy-2-naphthalenyl)methyl ester 2-oxiraneacetic acid, Cayman Chemicals, Ann Arbor, MI, United States) was used as substrate, which is hydrolyzed by sEH to the fluorescent 6-methoxynaphthaldehyde ([Rau et al., 2006]). The formation of the fluorescent product was measured (λem = 330 nm, λex = 465 nm) by an Infinite F200 Pro plate reader (Tecan Group Ltd., Männedorf, Switzerland). For that purpose, 2 μg recombinant human sEH in 100 μl bis-Tris buffer (pH 7, 0.1 mg/mL BSA, 0.01% Triton-X 100) was applied per well. This protein solution was then incubated with different concentrations of the test compounds for 30 min at RT. After this, 10 μL of the substrate were added (final concentration 50 μM). The formation of 6-methoxynaphthaldehyde was monitored for 30 min. All concentrations were tested in triplicate wells.

Test [7] has as its target T4, sEH (HEP-G2) (Homo sapiens, UniProt P34913).
T4 construct: 1 μg of total cell homogenate diluted in 100 μl of PBS; endogenous in cells; host or cells: HEP-G2
T4 sequence (P34913 1-555): T3 sequence (P34913 1-555)
Briefly: sEH activity in HEP-G2 cell lysates (14(15)-EET-d11 to DHET-d11, LC-MS/MS). Type of test: biochemical. The following applies: HEP-G2 cell homogenate, (±)14(15)-EET-d11 substrate, DHET formation by LC-MS/MS.
Procedure: Quantification of cellular sEH metabolic activity was performed as described by [Zha et al. (2014)]. For this, HEP-G2 cells were harvested, washed twice with PBS and sonicated in PBS for disruption of cell integrity. Then, 1 μg of total cell homogenate diluted in 100 μl of PBS containing 0.1 mg/ml BSA was incubated with the compounds or vehicle for 15 min at 37°C. After this, 25 ng (±)14(15)-EET-d11 (Cayman Chemical, Ann Arbor, MI, United States) were added per sample and the incubation was continued for additional 10 min at 37°C. A blank was performed using PBS (containing 0,1 mg/mL BSA). The reactions were stopped by adding 100 μL of ice cold methanol. After centrifugation (2000 rpm, 4°C, 5 min), supernatants were analyzed by LC-MS/MS and the amounts of (±)14(15)-EET-d11 and the corresponding (±)14(15)-DHET-d11 were determined.
14(15)-EET-d11 and 14(15)-DHET-d11 content of the extracted samples were analyzed employing liquid chromatography tandem mass spectroscopy (LC-MS/MS). […] Quantification was performed with Analyst Software V 1.5.1 (Sciex, Darmstadt, Germany) employing the internal standard method (isotope- dilution mass spectrometry). Ratios of analyte peak area and internal standard area (y-axis) were plotted against concentration (x-axis) and calibration curves were calculated by least square regression with 1/concentration^2 weighting.

Test [8] concerns CysLT1R. The following applies: Table 2 comparison column; no method, no reference given; cited from earlier work.

One may read the IC50 as the concentration needed to halve the response being measured.

On to `CN(CCOc1ccc(CC2SC(=O)NC2=O)cc1)c1ccccn1` (stereo not drawn) [rosiglitazone], for which the “Lipid accumulation (Oil Red O staining)” value in test [1] is “strong accumulation of lipid droplets”. In test [2] (3T3-L1 differentiated with cocktail plus compound), the “PPARγ isoforms γ1 and γ2 protein expression” value is given as “upregulated the protein levels”. In test [2] (after 14 days), the “Protein expression of PPARγ target genes FABP-4 and CD36” value is “upregulated the expression of all target genes investigated with high potency”. Further, in test [3], the “TNFα induced phosphorylation of PPARγ2 at serine 273” value is given as “inhibited this phosphorylation, although this effect was not significant”.
Take `O=C(Nc1cccc2c(=O)cc(-c3nnn[nH]3)oc12)c1ccc(OCCCCc2ccccc2)cc1` [Pranlukast, pranlukast]: the “PPARα EC50” value in test [4] is listed as “i.a. @ 10 μM”. For the same compound, the “PPARδ EC50” value in test [5] is recorded as “i.a. @ 10 μM”. Besides, the IC50 in test [6] is 8.86 ± 0.19 µM; in test [7], 14.1 µM; in test [8] it was 4 nM.
